# Assay results: ChEMBL document CHEMBL1152723, “Remarkable enhancement in the DNA-binding ability of C2-fluoro substituted pyrrolo[2,1-c][1,4]benzodiazepines and their anticancer potential” (2009)
# Experiments:
# DNA = assay: Binding affinity to calf thymus DNA assessed as change in melting temperature at a compound to DNA molar ratio of 1:5 at pH 7 by thermal denaturation assay; format: nucleic-acid assay; conditions: Bos taurus
# Malme-3M = assay: Growth inhibition of human MALME-3M cells after 48 hrs by sulforhodamine B protein assay; format: functional
# IGROV-1 = assay: Growth inhibition of human IGROV1 cells after 48 hrs by sulforhodamine B protein assay; format: functional; conditions: IGROV-1, 48 h
# A549 = assay: Growth inhibition of human A549 cells after 48 hrs by sulforhodamine B protein assay; format: functional; conditions: A549, 48 h
# LOX IMVI = assay: Growth inhibition of human LOXIMVI cells after 48 hrs by sulforhodamine B protein assay; format: functional
# SK-OV-3 = assay: Growth inhibition of human SKOV3 cells after 48 hrs by sulforhodamine B protein assay; format: functional; conditions: SK-OV-3, 48 h
# MDA-MB-435 = assay: Growth inhibition of human MDA-MB-435 cells after 48 hrs by sulforhodamine B protein assay; format: functional; conditions: MDA-MB-435, 48 h
# MDA-MB-468 = assay: Growth inhibition of human MDA-MB-468 cells after 48 hrs by sulforhodamine B protein assay; format: functional; conditions: MDA-MB-468, 48 h
# OVCAR-3 = assay: Growth inhibition of human OVCAR-3 cells after 48 hrs by sulforhodamine B protein assay; format: functional; conditions: OVCAR-3, 48 h
# MDA-MB-231 = assay: Growth inhibition of human MDA-MB-231 cells after 48 hrs by sulforhodamine B protein assay; format: functional; conditions: MDA-MB-231, 48 h
# TK-10 = assay: Growth inhibition of human TK10 cells after 48 hrs by sulforhodamine B protein assay; format: functional; conditions: TK-10, 48 h
# [1] = Growth inhibition of human Hs 578T cells after 48 hrs by sulforhodamine B protein assay; format: functional
# HL-60(TB) = assay: Growth inhibition of human HL-60(TB) cells after 48 hrs by sulforhodamine B protein assay; format: functional; conditions: HL-60, 48 h
# HCC 2998 = assay: Growth inhibition of human HCC2998 cells after 48 hrs by sulforhodamine B protein assay; format: functional; conditions: HCC 2998, 48 h
# MOLT-4 = assay: Growth inhibition of human MOLT4 cells after 48 hrs by sulforhodamine B protein assay; format: functional; conditions: MOLT-4, 48 h
# NCI-H522 = assay: Growth inhibition of human NCI-H522 cells after 48 hrs by sulforhodamine B protein assay; format: functional; conditions: NCI-H522, 48 h
# SK-MEL-5 = assay: Growth inhibition of human SK-MEL-5 cells after 48 hrs by sulforhodamine B protein assay; format: functional; conditions: SK-MEL-5, 48 h
# RXF 393 = assay: Growth inhibition of human […] cells after 48 hrs by sulforhodamine B protein assay; format: functional; conditions: RXF 393, 48 h
# SF-268 = assay: Growth inhibition of human SF268 cells after 48 hrs by sulforhodamine B protein assay; format: functional; conditions: SF-268, 48 h
# ACHN = assay: Growth inhibition of human ACHN cells after 48 hrs by sulforhodamine B protein assay; format: functional
# HCT-116 = assay: Growth inhibition of human HCT116 cells after 48 hrs by sulforhodamine B protein assay; format: functional; conditions: HCT-116, 48 h
# HOP-62 = assay: Growth inhibition of human HOP62 cells after 48 hrs by sulforhodamine B protein assay; format: functional; conditions: HOP-62, 48 h
# K562 = assay: Growth inhibition of human K562 cells after 48 hrs by sulforhodamine B protein assay; format: functional; conditions: K562, 48 h
# COLO 205 = assay: Growth inhibition of human COLO205 cells after 48 hrs by sulforhodamine B protein assay; format: functional; conditions: COLO 205, 48 h
# PC-3 = assay: Growth inhibition of human PC3 cells after 48 hrs by sulforhodamine B protein assay; format: functional; conditions: PC-3, 48 h
# SW-620 = assay: Growth inhibition of human SW620 cells after 48 hrs by sulforhodamine B protein assay; format: functional; conditions: SW-620, 48 h
# U-251 = assay: Growth inhibition of human U251 cells after 48 hrs by sulforhodamine B protein assay; format: functional; conditions: U-251, 48 h
# SF-539 = assay: Growth inhibition of human SF539 cells after 48 hrs by sulforhodamine B protein assay; format: functional; conditions: SF-539, 48 h
# BT-549 = assay: Growth inhibition of human BT549 cells after 48 hrs by sulforhodamine B protein assay; format: functional; conditions: BT-549, 48 h
# NCI-H460 = assay: Growth inhibition of human NCI-H460 cells after 48 hrs by sulforhodamine B protein assay; format: functional; conditions: NCI-H460, 48 h
# MCF7 = assay: Growth inhibition of human MCF7 cells after 48 hrs by sulforhodamine B protein assay; format: functional; conditions: MCF7, 48 h
# DU-145 = assay: Growth inhibition of human DU145 cells after 48 hrs by sulforhodamine B protein assay; format: functional; conditions: DU-145, 48 h
# HT-29 = assay: Growth inhibition of human HT-29 cells after 48 hrs by sulforhodamine B protein assay; format: functional; conditions: HT-29, 48 h
# SK-MEL-28 = assay: Growth inhibition of human SK-MEL-28 cells after 48 hrs by sulforhodamine B protein assay; format: functional; conditions: SK-MEL-28, 48 h
# OVCAR-5 = assay: Growth inhibition of human OVCAR5 cells after 48 hrs by sulforhodamine B protein assay; format: functional; conditions: OVCAR-5, 48 h
# HOP-92 = assay: Growth inhibition of human HOP92 cells after 48 hrs by sulforhodamine B protein assay; format: functional; conditions: HOP-92, 48 h
# SNB-75 = assay: Growth inhibition of human SNB75 cells after 48 hrs by sulforhodamine B protein assay; format: functional; conditions: SNB-75, 48 h
# SR = assay: Growth inhibition of human SR cells after 48 hrs by sulforhodamine B protein assay; format: functional
# SNB-19 = assay: Growth inhibition of human SNB19 cells after 48 hrs by sulforhodamine B protein assay; format: functional; conditions: SNB-19, 48 h
# SN12C = assay: Growth inhibition of human SN12C cells after 48 hrs by sulforhodamine B protein assay; format: functional
# [2] = target: T1, Type II restriction enzyme BamHI (Bacillus amyloliquefaciens) (UniProt P23940); assay: Inhibition of Bacillus amyloliquefaciens BamH1-mediated pBR322 cleavage after 16 hrs by RED100-restriction endonuclease digestion assay
# T1 sequence (whole entry): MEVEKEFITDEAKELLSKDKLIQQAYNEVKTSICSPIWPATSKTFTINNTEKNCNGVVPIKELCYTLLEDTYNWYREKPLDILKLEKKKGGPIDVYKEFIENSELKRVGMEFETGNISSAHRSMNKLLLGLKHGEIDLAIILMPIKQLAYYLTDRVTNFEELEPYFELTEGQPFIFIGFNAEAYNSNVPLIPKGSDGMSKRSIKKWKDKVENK
# A498 = assay: Growth inhibition of human A498 cells after 48 hrs by sulforhodamine B protein assay; format: functional; conditions: A498, 48 h
# 786-0 = assay: Growth inhibition of human 786-0 cells after 48 hrs by sulforhodamine B protein assay; format: functional; conditions: 786-0, 48 h
# CCRF-CEM = assay: Growth inhibition of human CCRF-CEM cells after 48 hrs by sulforhodamine B protein assay; format: functional
# UACC-62 = assay: Growth inhibition of human UACC62 cells after 48 hrs by sulforhodamine B protein assay; format: functional; conditions: UACC-62, 48 h
# KM12 = assay: Growth inhibition of human KM12 cells after 48 hrs by sulforhodamine B protein assay; format: functional; conditions: KM12, 48 h
# OVCAR-8 = assay: Growth inhibition of human OVCAR8 cells after 48 hrs by sulforhodamine B protein assay; format: functional; conditions: OVCAR-8, 48 h
# M14 = assay: Growth inhibition of human M14 cells after 48 hrs by sulforhodamine B protein assay; format: functional; conditions: M14, 48 h
# [3] = Growth inhibition of human […] cells after 48 hrs by sulforhodamine B protein assay; format: functional
# CAKI-1 = assay: Growth inhibition of human Caki1 cells after 48 hrs by sulforhodamine B protein assay; format: functional; conditions: CAKI-1, 48 h
# NCI-H23 = assay: Growth inhibition of human NCI-H23 cells after 48 hrs by sulforhodamine B protein assay; format: functional; conditions: NCI-H23, 48 h
# T47D = assay: Growth inhibition of human T47D cells after 48 hrs by sulforhodamine B protein assay; format: functional
smiles,measurement,setting,value
C=C1C[C@H]2C=Nc3cc(OCCCOc4cc5c(cc4OC)C(=O)N4CC(=C)C[C@H]4C=N5)c(OC)cc3C(=O)N2C1,ΔTm,DNA,25.7 °C
COc1cc2c(cc1OCCCCCN1CCN(CCCCCOc3cc4c(cc3OC)C(=O)N3CC(F)(F)C[C@H]3C=N4)CC1)N=C[C@@H]1CC(F)(F)CN1C2=O,ΔTm,DNA,13 °C
COc1cc2c(cc1OCCCCN1CCN(CCCCOc3cc4c(cc3OC)C(=O)N3CC(F)C[C@H]3C=N4)CC1)N=C[C@@H]1CC(F)CN1C2=O (some centres not stated),ΔTm,DNA,38 °C
COc1cc2c(cc1OCCCCCOc1cc3c(cc1OC)C(=O)N1CC(F)(F)C[C@H]1C=N3)N=C[C@@H]1CC(F)(F)CN1C2=O,ΔTm,DNA,18.9 °C
COc1cc2c(cc1OCCCCN1CCN(CCCCOc3cc4c(cc3OC)C(=O)N3CC(F)(F)C[C@H]3C=N4)CC1)N=C[C@@H]1CC(F)(F)CN1C2=O,ΔTm,DNA,14 °C
COc1cc2c(cc1OCCCN1CCN(CCCOc3cc4c(cc3OC)C(=O)N3CC(F)(F)C[C@H]3C=N4)CC1)N=C[C@@H]1CC(F)(F)CN1C2=O,ΔTm,DNA,11 °C
same,GI50,Malme-3M,2800 nM
same,GI50,IGROV-1,1920 nM
same,GI50,A549,7.32 µM
same,GI50,LOX IMVI,1890 nM
same,GI50,SK-OV-3,8.64 µM
same,GI50,MDA-MB-435,2940 nM
same,GI50,MDA-MB-468,1380 nM
same,GI50,OVCAR-3,3.55 µM
same,GI50,MDA-MB-231,4.29 µM
same,GI50,TK-10,4.38 µM
same,GI50,[1],2320 nM
same,GI50,HL-60(TB),1180 nM
same,GI50,HCC 2998,5.4 µM
same,GI50,MOLT-4,2020 nM
same,GI50,NCI-H522,1140 nM
same,GI50,SK-MEL-5,4.28 µM
same,GI50,RXF 393,2140 nM
same,GI50,SF-268,3.57 µM
same,GI50,ACHN,5.64 µM
same,GI50,HCT-116,3.59 µM
same,GI50,HOP-62,3.17 µM
same,GI50,K562,1740 nM
same,GI50,COLO 205,3.09 µM
same,GI50,PC-3,3.06 µM
same,GI50,SW-620,2610 nM
same,GI50,U-251,3.36 µM
same,GI50,SF-539,3.05 µM
same,GI50,BT-549,1950 nM
same,GI50,NCI-H460,2600 nM
same,GI50,MCF7,2020 nM
same,GI50,DU-145,3.63 µM
same,GI50,HT-29,3.61 µM
same,GI50,SK-MEL-28,1860 nM
same,GI50,OVCAR-5,3.83 µM
same,GI50,HOP-92,6.14 µM
same,GI50,SNB-75,5.52 µM
same,GI50,SR,880 nM
same,GI50,SNB-19,4.08 µM
same,GI50,SN12C,4.05 µM
same,Activity,[2],Dose-dependent effect
same,GI50,A498,2430 nM
same,GI50,786-0,3.17 µM
same,GI50,CCRF-CEM,970 nM
same,GI50,UACC-62,3.05 µM
same,GI50,KM12,4.1 µM
same,GI50,OVCAR-8,6.3 µM
same,GI50,M14,3.25 µM
same,GI50,[3],2200 nM
same,GI50,CAKI-1,3.31 µM
same,GI50,NCI-H23,4.66 µM
same,GI50,T47D,3.25 µM
COc1cc2c(cc1OCCCOc1cc3c(cc1OC)C(=O)N1CCC[C@H]1C=N3)N=C[C@@H]1CCCN1C2=O,ΔTm,DNA,10.2 °C
COc1cc2c(cc1OCCCCOc1cc3c(cc1OC)C(=O)N1CC(F)(F)C[C@H]1C=N3)N=C[C@@H]1CC(F)(F)CN1C2=O,ΔTm,DNA,4.2 °C
COc1cc2c(cc1OCCCN1CCN(CCCOc3cc4c(cc3OC)C(=O)N3CC(=C(F)F)C[C@H]3C=N4)CC1)N=C[C@@H]1CC(=C(F)F)CN1C2=O,ΔTm,DNA,28.9 °C
same,Activity,[2],Dose-dependent effect
COc1cc2c(cc1OCCCCCN1CCN(CCCCCOc3cc4c(cc3OC)C(=O)N3CC(F)C[C@H]3C=N4)CC1)N=C[C@@H]1CC(F)CN1C2=O (some centres not stated),ΔTm,DNA,37 °C
